# Measurements as given in patent US20250026765A1, “SPIROHETEROCYCLE DERIVATIVE HAVING SEROTONIN RECEPTOR BINDING ACTIVITY” (Shionogi & Co., Ltd., priority 2021, published 2025).
# Molecular target: human recombinant 5-HT2A receptor (Homo sapiens (Human), UniProt P28223)
# Assay: 5-HT2A receptor binding inhibition test ([3H]-Ketanserin)
# Conditions: Jump-In HEK cell membrane, 25° C. 1.5 hours, read-out: h-5-HT2A Ki
# Summary of the method: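 Membranes from Jump-In HEK cells expressing the receptor were incubated with [3H]-ketanserin at about its Kd (from Scatchard analysis) in Tris-HCl pH 7.4 buffer for 1.5 h at 25° C, then filtered and counted. Non-specific binding was defined with 500 μmol/L serotonin, and Ki was taken from dose-response curves.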
# Sequence of human recombinant 5-HT2A receptor (P28223 whole entry): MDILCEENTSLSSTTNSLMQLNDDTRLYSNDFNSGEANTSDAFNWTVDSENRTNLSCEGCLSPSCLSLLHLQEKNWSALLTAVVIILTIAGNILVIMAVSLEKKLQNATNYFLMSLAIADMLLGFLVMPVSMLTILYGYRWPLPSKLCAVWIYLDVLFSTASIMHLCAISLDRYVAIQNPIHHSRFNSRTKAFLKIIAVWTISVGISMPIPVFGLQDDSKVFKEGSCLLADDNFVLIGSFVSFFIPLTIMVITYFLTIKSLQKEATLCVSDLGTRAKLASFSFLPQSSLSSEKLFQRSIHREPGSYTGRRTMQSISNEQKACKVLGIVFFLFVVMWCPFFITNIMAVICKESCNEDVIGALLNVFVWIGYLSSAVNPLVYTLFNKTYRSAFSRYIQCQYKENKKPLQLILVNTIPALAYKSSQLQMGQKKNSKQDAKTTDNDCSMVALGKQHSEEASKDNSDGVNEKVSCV
row,Structure (SMILES),Ki [nM]
1,CC(C)COc1ccc(CN(Cc2coc(CF)n2)C2=NOC3(CCN(C)CC3)N2)cc1 [Compound I-067],< 10
2,CCCCOc1ccc(CN(Cc2coc(C)n2)C2=NOC3(CCN(C)CC3)N2)cc1 [Compound I-080],< 10

# Same assay, conditions: Jump-In HEK cell membrane, 25° C. 1.5 hours, read-out: human serotonin 5-HT2A receptor binding activity Ki
row,Structure (SMILES),Ki [nM]
1,CC(C)COc1ccc(CN(Cc2coc(CF)n2)C2=NOC3(CCN(C)CC3)N2)cc1 [Compound I-067],1.37
2,Cc1nc(CN(Cc2ccc(CCC(F)(F)F)cc2)C2=NOC3(CCN(C)CC3)N2)co1 [Compound I-125],1.26
3,CCCCOc1ccc(CN(Cc2coc(C)n2)C2=NOC3(CCN(C)CC3)N2)cc1F [Compound I-115],0.703
4,CCCCOc1ccc(CN(Cc2coc(C)n2)C2=NOC3(CCN(C)CC3)N2)cc1 [Compound I-080],0.823

# Further molecules by falling Ki, results first:
row,Ki [nM],Structure (SMILES)
1,1.56,Cc1nc(CN(Cc2ccc(OCC(F)(F)C(F)(F)F)cc2F)C2=NOC3(CCN(C)CC3)N2)co1 [Compound I-104]
2,1.36,Cc1nc(CN(Cc2ccc(OCC(C)C)cc2F)C2=NOC3(CCN(C)CC3)N2)co1 [Compound I-128]
3,1.2,CCCCOc1ccc(CN(Cc2cnn(C)n2)C2=NOC3(CCN(C)CC3)N2)cc1 [Compound I-113]
4,0.979,CCCCOc1ccc(CN(Cc2coc(CF)n2)C2=NOC3(CCN(C)CC3)N2)cc1 [Compound I-105]
5,0.74,CCCCOc1ccc(CN(Cc2coc(C)n2)C2=NOC3(CCN(C)CC3)N2)c(F)c1 [Compound I-114]
